# Data from US20240116985A1, “STAPLED PEPTIDES AND METHODS THEREOF” (priority 2020, published 2024).
# Read-outs that look alike come from different tables or passages of the source.
# Legend:
# [1] = target: T1, full-length beta-Catenin (Uniprot ID P35222) (Homo sapiens, UniProt P35222); assay: Fluorescence polarization IC50 (beta-catenin / 5FAM-TCF4 10-53 competition); assay type: binding; settings: fluorescence polarization
# T1 construct: 10 nM full-length beta-Catenin (Uniprot ID P35222)
# T1 sequence (P35222 1-781): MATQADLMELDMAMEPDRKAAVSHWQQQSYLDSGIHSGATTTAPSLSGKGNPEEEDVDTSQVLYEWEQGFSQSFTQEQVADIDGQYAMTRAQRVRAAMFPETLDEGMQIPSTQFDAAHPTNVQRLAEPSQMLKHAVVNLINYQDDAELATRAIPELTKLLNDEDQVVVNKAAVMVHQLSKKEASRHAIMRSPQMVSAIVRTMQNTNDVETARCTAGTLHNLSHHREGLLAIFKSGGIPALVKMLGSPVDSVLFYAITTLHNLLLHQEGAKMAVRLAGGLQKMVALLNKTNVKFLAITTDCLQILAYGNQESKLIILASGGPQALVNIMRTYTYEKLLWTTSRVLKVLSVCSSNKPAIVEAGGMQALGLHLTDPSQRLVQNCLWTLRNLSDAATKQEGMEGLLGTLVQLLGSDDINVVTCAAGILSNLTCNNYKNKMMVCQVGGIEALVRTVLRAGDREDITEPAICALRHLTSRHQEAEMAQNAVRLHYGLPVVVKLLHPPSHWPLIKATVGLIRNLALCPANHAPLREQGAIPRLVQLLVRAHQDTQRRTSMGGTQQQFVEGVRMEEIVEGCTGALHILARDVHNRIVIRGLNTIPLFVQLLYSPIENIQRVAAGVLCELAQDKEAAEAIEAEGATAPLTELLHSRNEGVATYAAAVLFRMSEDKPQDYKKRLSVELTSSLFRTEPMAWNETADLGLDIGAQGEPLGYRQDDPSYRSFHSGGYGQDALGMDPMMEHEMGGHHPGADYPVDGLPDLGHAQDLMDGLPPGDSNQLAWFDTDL
# [2] = target: T2, beta-catenin/TCF4 engagement (Homo sapiens, UniProt P35222); assay: Nano-BRET target engagement assay (B-cat-Halo & TCF4-Luc in HEK293 cells); assay type: cell-based
# T2 construct: expressed in transfected cells; host or cells: HEK293
# T2 sequence (P35222 1-781): T1 sequence (P35222 1-781)
# COLO320DM cells = assay type: cell-based; settings: COLO320DM cells, read-out: COLO320DM Proliferation Abs IC50
# Description: COLO320DM proliferation assay IC50: In some embodiments, inhibition of cell proliferation by provided technologies were assessed using cell lines related to or from certain conditions, disorders or diseases. In some embodiments, cell proliferation was assessed in COLO320DM cells. In some embodiments, assessment was performed using the following procedure: On Day 1, cultured COLO320DM cells in a T75 flask were trypsinized in 3 mL of 0.25% trypsin/EDTA for 5 min and quenched with 10 mL RPMI-1640+4% HI FBS assay media. The cells were spun down at 1200 rpm for 5 min, the cell pellet collected and re-suspended at 5000 cells/mL in assay media. Using a Combi liquid handler, cells were dispensed (50 uL, 250 cells/well) into three 384 well plates. Plates were incubated at 37° C., […]. On day 2, compounds were added. A liquid handling system was used to prepare the compound dilution and dispense compound into assay plates. The compounds were serially diluted 1/2 in 90% DMSO to create a 7 point dose curve. From compound plate, 100 nL of compound were dispensed directly into wells of the assay plates to create a dose curve starting at 20 uM and ending at 313 nM. Assay plates were incubated at 37° C., […]. On day 6, assay plates were removed from the incubator and allowed to sit at room temperature for 30 min. Using a liquid handler, 20 uL of CellTiter Glo reagent was added to each well. The assay plates were shaken for 2 min and allowed to sit on the bench for 10-15 minutes. The assay plates were read using the CellTiter Glo protocol on a GloMax microplate reader, and the data analyzed using GraphPad Prism.
# [3] = absolute IC50, read-out: NanoBRET Abs IC50
Compound,IC50 ([1]; read-out: beta-Catenin FP IC50) [nM],"IC50 [2, 3] [µM]",IC50 (COLO320DM cells; absolute IC50) [µM],IC50 ([2]; read-out: NanoBRET Abs IC50) [µM],IC50 (COLO320DM cells) [µM],IC50 ([1]; beta-Catenin FP IC50 (nM)) [nM],"IC50 ([2]; NanoBRET Abs IC50 (uM), absolute IC50) [µM]"
"CC(=O)N1CCC[C@]12CC=CCCCC1(CCCC=CCCCOC(=O)N3CC[C@@](C(=O)N[C@@H](Cc4ccccc4C(F)(F)F)C(=O)N[C@@H](Cc4csc5ccccc45)C(=O)N[C@@H](CCC(N)=O)C(=O)N[C@@H](CC(C)C)C(=O)N[C@@H](CC(C)C)C(N)=O)(C3)NC(=O)[C@H](CC(C)C)NC(=O)[C@H](Cc3ccccc3)NC(=O)[C@H](C)NC(=O)[C@H](C)NC(=O)[C@H](Cc3cccc(C(=O)O)c3)NC(=O)[C@H](CC(=O)O)NC1=O)NC(=O)[C@H](CC(C)(C)C)NC(=O)[C@H](CC(=O)O)NC2=O (stereo partly drawn) [I-2380, Ac-PL3-Asp-Npg-B5-Asp-3COOHF-Ala-Ala-Phe-Leu-PyrS2-2F3MeF-BztA-Gln-Leu-Leu-NH2]",330,2.7,> 20,–,–,–,–
"CC(=O)N1CCC[C@]12CC=CCCCC1(CCCC=CCCCOC(=O)N3CC[C@@](C(=O)N[C@@H](Cc4ccsc4)C(=O)N[C@@H](Cc4csc5ccccc45)C(=O)N[C@@H](CC(N)=O)C(=O)N[C@@H](CC(C)C)C(N)=O)(C3)NC(=O)[C@H](CC(C)C)NC(=O)[C@H](Cc3ccccc3)NC(=O)[C@H](C)NC(=O)[C@H](C)NC(=O)[C@H](Cc3cccc(C(=O)O)c3)NC(=O)[C@H](CC(=O)O)NC1=O)NC(=O)[C@H](CC(C)(C)C)NC(=O)[C@H](CC(=O)O)NC2=O (stereo partly drawn) [I-2274, Ac-PL3-Asp-Npg-B5-Asp-3COOHF-Ala-Ala-Phe-Leu-PyrS2-3Thi-BztA-Asn-Leu-NH2]",10,2,6.2,–,–,–,–
"CC(=O)N1CCC[C@]12CC=CCCCC1(CCCC=CCCCOC(=O)N3CC[C@@](C(=O)N[C@@H](Cc4ccccc4Cl)C(=O)N[C@@H](Cc4csc5ccccc45)C(=O)N[C@@H](CC(N)=O)C(N)=O)(C3)NC(=O)[C@H](CC(C)C)NC(=O)[C@H](Cc3ccccc3)NC(=O)[C@H](C)NC(=O)[C@H](C)NC(=O)[C@H](Cc3cccc(C(=O)O)c3)NC(=O)[C@H](CC(=O)O)NC1=O)NC(=O)[C@H](CC(C)(C)C)NC(=O)[C@H](CC(=O)O)NC2=O (stereo partly drawn) [I-1904, Ac-PL3-Asp-Npg-B5-Asp-3COOHF-Ala-Ala-Phe-Leu-PyrS2-2C1F-BztA-Asn-NH2]",15,–,–,4.2,> 20,–,–
CC(=O)N1CCC[C@]12CC=CCCCC1(CCCC=CCCCOC(=O)N3CC[C@@](C(=O)N[C@@H](Cc4ccsc4)C(=O)N[C@@H](Cc4csc5ccccc45)C(=O)N[C@@H](CC(N)=O)C(=O)N[C@@H](C)C(=O)N[C@@H](C)C(=O)N[C@@H](C)C(=O)N[C@@H](C)C(=O)N[C@@H](C)C(=O)N[C@@H](C)C(=O)N[C@@H](C)C(N)=O)(C3)NC(=O)[C@H](CC(C)C)NC(=O)[C@H](Cc3ccccc3)NC(=O)[C@H](C)NC(=O)[C@H](C)NC(=O)[C@H](Cc3cccc(C(=O)O)c3)NC(=O)[C@H](CC(=O)O)NC1=O)NC(=O)[C@H](CC(C)(C)C)NC(=O)[C@H](CC(=O)O)NC2=O (stereo partly drawn) [I-2269],–,–,3.9,–,–,20,2.3
"CC(=O)N1CCC[C@]12CC=CCCCC1(CCCC=CCCCOC(=O)N3CC[C@@](C(=O)N[C@@H](Cc4ccccc4C(F)(F)F)C(=O)N[C@@H](Cc4csc5ccccc45)C(=O)N[C@@H](CCC(=O)N4CCOCC4)C(N)=O)(C3)NC(=O)[C@H](CC(C)C)NC(=O)[C@H](Cc3ccccc3)NC(=O)[C@H](C)NC(=O)[C@H](C)NC(=O)[C@H](Cc3cccc(C(=O)O)c3)NC(=O)[C@H](CC(=O)O)NC1=O)NC(=O)[C@H](CC(C)(C)C)NC(=O)[C@H](CC(=O)O)NC2=O (stereo partly drawn) [I-2541, Ac-PL3-Asp-Npg-B5-Asp-3COOHF-Ala-Ala-Phe-Leu-PyrS2-2F3MeF-BztA-MorphGln-NH2]",21,4.7,> 20,–,–,–,–
"CC(=O)N1CCC[C@]12CC=CCCCC1(CCCC=CCCCOC(=O)N3CC[C@@](C(=O)N[C@@H](Cc4ccsc4)C(=O)N[C@@H](Cc4csc5ccccc45)C(=O)N[C@H](CO)C(=O)N[C@@H](C)C(N)=O)(C3)NC(=O)[C@@H](CO)NC(=O)[C@H](Cc3ccccc3)NC(=O)[C@H](C)NC(=O)C(C)(C)NC(=O)[C@H](Cc3cccc(C(=O)O)c3)NC(=O)[C@H](CC(=O)O)NC1=O)NC(=O)[C@H](CC(C)(C)C)NC(=O)[C@H](CC(=O)O)NC2=O (stereo partly drawn) [I-2576, Ac-PL3-Asp-Npg-B5-Asp-3COOHF-Aib-Ala-Phe-dSer-PyrS2-3Thi-BztA-dSer-Ala-NH2]",6,–,–,16.1,> 20,–,–
"CC(=O)N1CCC[C@]12CC=CCCCC1(CCCC=CCCCOC(=O)N3CC[C@@](C(=O)N[C@@H](Cc4ccccc4C(F)(F)F)C(=O)N[C@@H](Cc4csc5ccccc45)C(=O)N[C@@H](CCC(=O)N(C)C)C(N)=O)(C3)NC(=O)[C@H](CC(C)C)NC(=O)[C@H](Cc3ccccc3)NC(=O)[C@H](C)NC(=O)[C@H](CCC(=O)N(C)C)NC(=O)[C@H](Cc3cccc(C(=O)O)c3)NC(=O)[C@H](CC(=O)O)NC1=O)NC(=O)[C@H](CC(C)(C)C)NC(=O)[C@H](CC(=O)O)NC2=O (stereo partly drawn) [I-2300, Ac-PL3-Asp-Npg-B5-Asp-3COOHF-[NMe2]GlnR-Ala-Phe-Leu-PyrS2-2F3MeF-BztA-INMe2]GlnR-NH2]",6,1.2,> 20,–,–,–,–
"CC(=O)N1CCC[C@]12CC=CCCCC1(CCCC=CCCCOC(=O)N3CC[C@@](C(=O)N[C@@H](Cc4ccsc4)C(=O)N[C@@H](Cc4csc5ccccc45)C(=O)N[C@@H](CO)C(=O)N[C@@H](C)C(N)=O)(C3)NC(=O)[C@H](CO)NC(=O)[C@H](Cc3ccccc3)NC(=O)[C@H](C)NC(=O)C(C)(C)NC(=O)[C@H](Cc3cccc(C(=O)O)c3)NC(=O)[C@H](CC(=O)O)NC1=O)NC(=O)[C@H](CC(C)(C)C)NC(=O)[C@H](CC(=O)O)NC2=O (stereo partly drawn) [I-2577, Ac-PL3-Asp-Npg-B5-Asp-3COOHF-Aib-Ala-Phe-Ser-PyrS2-3Thi-BztA-Ser-Ala-NH2]",7,–,–,2.7,9.5,–,–
"CC(=O)N1CCC[C@]12CC=CCCCC1(CCCC=CCCCOC(=O)N3CC[C@@](C(=O)N[C@@H](Cc4ccccc4C(F)(F)F)C(=O)N[C@@H](Cc4csc5ccccc45)C(=O)N[C@@H](C)C(N)=O)(C3)NC(=O)[C@H](CC(C)C)NC(=O)[C@H](Cc3ccccc3)NC(=O)[C@H](C)NC(=O)[C@H](CCC(=O)N3CCN(CC(F)(F)F)CC3)NC(=O)[C@H](Cc3cccc(C(=O)O)c3)NC(=O)[C@H](CC(=O)O)NC1=O)NC(=O)[C@H](CC(C)(C)C)NC(=O)[C@H](CC(=O)O)NC2=O (stereo partly drawn) [I-2316, Ac-PL3-Asp-Npg-B5-Asp-3COOHF-[TfePpz]GlnR-Ala-Phe-Leu-PyrS2-2F3MeF-BztA-Ala-NH2]",11,1.6,> 20,–,–,–,–
"CC(=O)NCCCC[C@@H]1NC(=O)[C@H](Cc2ccccc2)NC(=O)[C@H](C)NC(=O)C(C)(C)NC(=O)[C@H](Cc2cccc(C(=O)O)c2)NC(=O)[C@H](CC(=O)O)NC(=O)C2(CCCC=CCCCOC(=O)N3CC[C@@](C(=O)N[C@@H](Cc4ccccc4C(F)(F)F)C(=O)N[C@@H](Cc4csc5ccccc45)C(=O)N[C@@H](C)C(=O)N[C@@H](C)C(N)=O)(C3)NC1=O)CCCC=CC[C@]1(CCCN1C(C)=O)C(=O)N[C@@H](CC(=O)O)C(=O)N[C@@H](CC(C)(C)C)C(=O)N2 (stereo partly drawn) [I-2579, Ac-PL3-Asp-Npg-B5-Asp-3COOHF-Aib-Ala-Phe-AcLys-PyrS2-2F3MeF-BztA-Ala-Ala-NH2]",41,–,–,4.7,15.3,–,–
